PMC5218480 (PLoS ONE, 2017)

System: MV-4-11 cells
Test: Gene expression microarray analysis (Affymetrix PrimeView) and GSEA
Assay type: cell-based, human
Parameters: RFU PODN (11730768_x_at) / Fold change /veh PODN (11730768_x_at) / RFU LINC00158 (11744669_a_at) / Fold change /veh LINC00158 (11744669_a_at) / RFU DUSP10 (11751237_a_at) / Fold change /veh DUSP10 (11751237_a_at) / RFU ID3 (11757404_x_at) / Fold change /veh ID3 (11757404_x_at) / RFU PLEKHG5 (11737974_s_at) / Fold change /veh PLEKHG5 (11737974_s_at) / RFU LRRC4B (11730491_at) / Fold change /veh LRRC4B (11730491_at) / RFU GIMAP4 (11747438_a_at) / Fold change /veh GIMAP4 (11747438_a_at) / RFU KRT8 (11758183_x_at) / Fold change /veh KRT8 (11758183_x_at) / RFU CNN1 (11734310_a_at) / Fold change /veh CNN1 (11734310_a_at) / RFU VPS37D (11726825_at) / Fold change /veh VPS37D (11726825_at) / RFU C10orf10 (11716522_x_at) / Fold change /veh C10orf10 (11716522_x_at) / RFU KIR2DL2 /// KIR2DL4 /// KIR2DL5A /// KIR2DL5B /// KIR2DS1 /// KIR2DS2 /// KIR2DS3 /// KIR2DS4 /// KIR3DL3 /// KIR3DL3 /// KIR3DS1 (11738374_at) / Fold change /veh KIR2DL2 /// KIR2DL4 /// KIR2DL5A /// KIR2DL5B /// KIR2DS1 /// KIR2DS2 /// KIR2DS3 /// KIR2DS4 /// KIR3DL3 /// KIR3DL3 /// KIR3DS1 (11738374_at) / RFU C1QL1 (11718748_at) / Fold change /veh C1QL1 (11718748_at) / RFU TMPRSS4 (11747572_a_at) / Fold change /veh TMPRSS4 (11747572_a_at) / RFU HAMP (11756126_x_at) / Fold change /veh HAMP (11756126_x_at) / RFU RNFT2 (11725882_a_at) / Fold change /veh RNFT2 (11725882_a_at) / RFU NR4A2 (11747474_a_at) / Fold change /veh NR4A2 (11747474_a_at) / RFU ABCC12 (11746883_a_at) / Fold change /veh ABCC12 (11746883_a_at) / RFU TMEM136 (11760407_x_at) / Fold change /veh TMEM136 (11760407_x_at) / RFU CLDN22 /// WWC2 (11732394_at) / Fold change /veh CLDN22 /// WWC2 (11732394_at) / RFU HLA-DPB1 (11760878_x_at) / Fold change /veh HLA-DPB1 (11760878_x_at) / RFU SPINT1 (11716480_a_at) / Fold change /veh SPINT1 (11716480_a_at) / RFU GAP43 (11754022_s_at) / Fold change /veh GAP43 (11754022_s_at) / RFU A4GNT (11735810_at) / Fold change /veh A4GNT (11735810_at) / RFU PRB3 (11715151_x_at) / Fold change /veh PRB3 (11715151_x_at) / RFU TUBB4B (11761932_at) / Fold change /veh TUBB4B (11761932_at) / RFU CAPN14 (11732068_a_at) / Fold change /veh CAPN14 (11732068_a_at) / RFU TMCC2 (11721928_a_at) / Fold change /veh TMCC2 (11721928_a_at) / RFU IRGQ (11745062_a_at) / Fold change /veh IRGQ (11745062_a_at) / RFU FAM174B (11720279_a_at) / Fold change /veh FAM174B (11720279_a_at) / RFU TMPRSS4 (11748680_a_at) / Fold change /veh TMPRSS4 (11748680_a_at) / RFU FAM212B (11763350_a_at) / Fold change /veh FAM212B (11763350_a_at) / RFU PLEKHG5 (11743358_a_at) / Fold change /veh PLEKHG5 (11743358_a_at) / RFU ZSCAN30 (11745921_a_at) / Fold change /veh ZSCAN30 (11745921_a_at) / RFU CMKLR1 (11741424_a_at) / Fold change /veh CMKLR1 (11741424_a_at) / RFU LOC101060620 /// MAPK8IP1 (11723275_at) / Fold change /veh LOC101060620 /// MAPK8IP1 (11723275_at) / RFU SPTSSB (11747773_x_at) / Fold change /veh SPTSSB (11747773_x_at) / RFU PRSS12 (11739890_at) / Fold change /veh PRSS12 (11739890_at) / RFU BIN1 (11741810_x_at) / Fold change /veh BIN1 (11741810_x_at) / RFU WNT11 (11732464_a_at) / Fold change /veh WNT11 (11732464_a_at) / RFU C10orf10 (11716521_a_at) / Fold change /veh C10orf10 (11716521_a_at) / RFU C5orf56 (11738089_at) / Fold change /veh C5orf56 (11738089_at) / RFU CYB561 (11721691_x_at) / Fold change /veh CYB561 (11721691_x_at) / RFU ANKRD19P (11752326_a_at) / Fold change /veh ANKRD19P (11752326_a_at) / RFU OR2T12 /// OR2T33 /// OR2T8 (11738714_s_at) / Fold change /veh OR2T12 /// OR2T33 /// OR2T8 (11738714_s_at) / RFU VCAN (11748164_a_at) / Fold change /veh VCAN (11748164_a_at) / RFU JSRP1 (11732532_at) / Fold change /veh JSRP1 (11732532_at) / RFU KRTAP10-11 (11738290_x_at) / Fold change /veh KRTAP10-11 (11738290_x_at) / RFU MYO3A (11730013_a_at) / Fold change /veh MYO3A (11730013_a_at) / RFU EBF3 (11725865_a_at) / Fold change /veh EBF3 (11725865_a_at) / RFU CAMK2N1 (11719241_x_at) / Fold change /veh CAMK2N1 (11719241_x_at) / RFU C5orf56 (11738088_a_at) / Fold change /veh C5orf56 (11738088_a_at) / RFU OLFML3 (11715873_a_at) / Fold change /veh OLFML3 (11715873_a_at) / RFU LOC100653217 /// NTM (11731650_a_at) / Fold change /veh LOC100653217 /// NTM (11731650_a_at) / RFU MAPK11 (11762145_a_at) / Fold change /veh MAPK11 (11762145_a_at) / RFU FIZ1 (11724087_x_at) / Fold change /veh FIZ1 (11724087_x_at) / RFU OASL (11726364_x_at) / Fold change /veh OASL (11726364_x_at) / RFU SOX15 (11748057_x_at) / Fold change /veh SOX15 (11748057_x_at) / RFU CD79A (11719716_a_at) / Fold change /veh CD79A (11719716_a_at) / RFU HIST1H1D (11736915_at) / Fold change /veh HIST1H1D (11736915_at) / RFU CASKIN2 (11723855_a_at) / Fold change /veh CASKIN2 (11723855_a_at) / RFU LOC730098 (11760151_x_at) / Fold change /veh LOC730098 (11760151_x_at) / RFU OR4N2 (11742367_at) / Fold change /veh OR4N2 (11742367_at) / RFU PRRT2 (11749266_a_at) / Fold change /veh PRRT2 (11749266_a_at) / RFU SNX32 (11753110_a_at) / Fold change /veh SNX32 (11753110_a_at) / RFU CDHR5 (11726645_a_at) / Fold change /veh CDHR5 (11726645_a_at) / RFU RCAN1 (11760418_a_at) / Fold change /veh RCAN1 (11760418_a_at) / RFU FAM167A (11723789_a_at) / Fold change /veh FAM167A (11723789_a_at) / RFU FAM26E (11764081_at) / Fold change /veh FAM26E (11764081_at) / RFU ISYNA1 (11749810_s_at) / Fold change /veh ISYNA1 (11749810_s_at) / RFU ACY1 (11761880_at) / Fold change /veh ACY1 (11761880_at) / RFU 11764098_at / Fold change /veh 11764098_at / RFU SAMD14 (11745864_x_at) / Fold change /veh SAMD14 (11745864_x_at) / RFU NPB (11741838_a_at) / Fold change /veh NPB (11741838_a_at) / RFU TMPRSS6 (11731388_a_at) / Fold change /veh TMPRSS6 (11731388_a_at) / RFU KRTAP10-2 (11738614_at) / Fold change /veh KRTAP10-2 (11738614_at) / RFU ARHGAP8 /// PRR5-ARHGAP8 (11727945_x_at) / Fold change /veh ARHGAP8 /// PRR5-ARHGAP8 (11727945_x_at) / RFU KRTAP5-7 /// NADSYN1 (11734609_at) / Fold change /veh KRTAP5-7 /// NADSYN1 (11734609_at) / RFU RASL12 (11751679_a_at) / Fold change /veh RASL12 (11751679_a_at) / RFU CDKN2B (11736163_a_at) / Fold change /veh CDKN2B (11736163_a_at) / RFU PRF1 (11729649_at) / Fold change /veh PRF1 (11729649_at) / RFU, ZNF638 /// ZNF638-IT1 / Fold change vs veh, ZNF638 /// ZNF638-IT1 / RFU, PANK3 / Fold change vs veh, PANK3 / RFU, SH3YL1 / Fold change vs veh, SH3YL1 / RFU, ZEB2 / Fold change vs veh, ZEB2 / RFU, NRIP1 / Fold change vs veh, NRIP1 / RFU, PTTG1IP / Fold change vs veh, PTTG1IP / RFU, CAPN2 / Fold change vs veh, CAPN2 / RFU, MED14 / Fold change vs veh, MED14 / RFU, SNORA58 / Fold change vs veh, SNORA58 / RFU, C1orf63 / Fold change vs veh, C1orf63 / RFU, LRRFIP1 / Fold change vs veh, LRRFIP1 / RFU, NDUFAF7 / Fold change vs veh, NDUFAF7 / RFU, SLC12A2 / Fold change vs veh, SLC12A2 / RFU, IBTK / Fold change vs veh, IBTK / RFU, ESF1 / Fold change vs veh, ESF1 / Fold change vs veh, TMEM50B / RFU, TAOK1 / Fold change vs veh, TAOK1 / RFU, ACBD3 / Fold change vs veh, ACBD3 / RFU, TMA16 / Fold change vs veh, TMA16 / RFU, RWDD3 / Fold change vs veh, RWDD3 / RFU, BCAT1 / Fold change vs veh, BCAT1 / RFU, EDEM3 / Fold change vs veh, EDEM3 / RFU, TMEM33 / Fold change vs veh, TMEM33 / RFU, WDR75 / Fold change vs veh, WDR75 / RFU, AHCTF1 / Fold change vs veh, AHCTF1 / RFU, TFRC / Fold change vs veh, TFRC / RFU, ZDHHC17 / Fold change vs veh, ZDHHC17 / RFU, NOM1 / Fold change vs veh, NOM1 / RFU, ARL8B / Fold change vs veh, ARL8B / RFU, ZBTB11 / Fold change vs veh, ZBTB11 / RFU, TAMM41 / Fold change vs veh, TAMM41 / RFU, KIAA1704 /// LOC100996395 / Fold change vs veh, KIAA1704 /// LOC100996395 / RFU, ING1 / Fold change vs veh, ING1 / RFU, TRMT61B / Fold change vs veh, TRMT61B / RFU, FUBP3 / Fold change vs veh, FUBP3 / RFU, TP53 / Fold change vs veh, TP53 / RFU, TNKS2 / Fold change vs veh, TNKS2 / RFU, ZFP14 / Fold change vs veh, ZFP14 / RFU, ACTR2 / Fold change vs veh, ACTR2 / RFU, PPP3R1 / Fold change vs veh, PPP3R1 / RFU, PIK3R1 / Fold change vs veh, PIK3R1 / RFU, HNRNPA1 / Fold change vs veh, HNRNPA1 / RFU, RNF170 / Fold change vs veh, RNF170 / RFU, ZNF28 / Fold change vs veh, ZNF28 / RFU, RNGTT / Fold change vs veh, RNGTT / RFU, OGT / Fold change vs veh, OGT / RFU, BRD1 / Fold change vs veh, BRD1 / RFU, MARS / Fold change vs veh, MARS / RFU, ZNF655 / Fold change vs veh, ZNF655 / RFU, FAHD1 / Fold change vs veh, FAHD1 / RFU, BDP1 / Fold change vs veh, BDP1 / RFU, LRRCC1 / Fold change vs veh, LRRCC1 / RFU, ARID1A / Fold change vs veh, ARID1A / RFU, ZNF146 / Fold change vs veh, ZNF146 / RFU, ZNF330 / Fold change vs veh, ZNF330 / RFU, GPN3 / Fold change vs veh, GPN3 / RFU, C9orf123 / Fold change vs veh, C9orf123 / RFU, N4BP2L2 / Fold change vs veh, N4BP2L2 / RFU, ARFIP1 / Fold change vs veh, ARFIP1 / RFU, FAM179B / Fold change vs veh, FAM179B / RFU, BCL10 / Fold change vs veh, BCL10 / RFU, UHRF1BP1L / Fold change vs veh, UHRF1BP1L / RFU, BET1 / Fold change vs veh, BET1 / RFU, CNOT2 / Fold change vs veh, CNOT2 / RFU, ZNF268 / Fold change vs veh, ZNF268 / Fold change vs veh, ZNF507 / RFU, DGCR2 / Fold change vs veh, DGCR2 / RFU, WDSUB1 / Fold change vs veh, WDSUB1 / Fold change vs veh, HSP90B1 /// MIR3652 / RFU, ADSS / Fold change vs veh, ADSS / RFU, GK / Fold change vs veh, GK / RFU, ZNF148 / Fold change vs veh, ZNF148 / RFU, TAF9 / Fold change vs veh, TAF9 / RFU, SLC1A5 / Fold change vs veh, SLC1A5 / RFU, SLMO2 / Fold change vs veh, SLMO2 / RFU, ABCC4 / Fold change vs veh, ABCC4 / RFU, LOC101060439 /// RAP1B / Fold change vs veh, LOC101060439 /// RAP1B / RFU, RFX7 / Fold change vs veh, RFX7 / RFU, GTPBP10 / Fold change vs veh, GTPBP10 / RFU, CNEP1R1 / Fold change vs veh, CNEP1R1 / RFU, BIVM-ERCC5 /// ERCC5 / Fold change vs veh, BIVM-ERCC5 /// ERCC5 / RFU, ILF3 / Fold change vs veh, ILF3 / RFU 11762660_at / Fold change /veh 11762660_at / RFU VCAN (11757783_s_at) / Fold change /veh VCAN (11757783_s_at) / RFU DDX43 (11728927_at) / Fold change /veh DDX43 (11728927_at) / RFU KRT8 (11758188_x_at) / Fold change /veh KRT8 (11758188_x_at) / RFU NKD1 (11759106_at) / Fold change /veh NKD1 (11759106_at) / RFU SRD5A1 (11742802_a_at) / Fold change /veh SRD5A1 (11742802_a_at) / RFU TPSAB1 /// TPSB2 (11721975_s_at) / Fold change /veh TPSAB1 /// TPSB2 (11721975_s_at) / RFU GSTM3 (11746129_a_at) / Fold change /veh GSTM3 (11746129_a_at) / RFU IL23R (11737362_x_at) / Fold change /veh IL23R (11737362_x_at) / RFU TMEM51 (11727254_a_at) / Fold change /veh TMEM51 (11727254_a_at) / RFU PIWIL2 (11732686_x_at) / Fold change /veh PIWIL2 (11732686_x_at) / RFU ORM1 (11744905_x_at) / Fold change /veh ORM1 (11744905_x_at) / RFU CCDC152 (11743942_at) / Fold change /veh CCDC152 (11743942_at) / RFU ECM1 (11717891_a_at) / Fold change /veh ECM1 (11717891_a_at) / RFU IL23R (11748794_a_at) / Fold change /veh IL23R (11748794_a_at) / RFU TNFAIP8L3 (11732012_x_at) / Fold change /veh TNFAIP8L3 (11732012_x_at) / RFU MBOAT4 (11741988_at) / Fold change /veh MBOAT4 (11741988_at) / RFU 11764193_at / Fold change /veh 11764193_at / RFU TMEM53 (11763286_at) / Fold change /veh TMEM53 (11763286_at) / RFU MAGEB2 (11727129_at) / Fold change /veh MAGEB2 (11727129_at) / RFU TMEM200A (11744735_a_at) / Fold change /veh TMEM200A (11744735_a_at) / RFU CCDC152 (11751479_a_at) / Fold change /veh CCDC152 (11751479_a_at) / RFU FAM211A (11726209_a_at) / Fold change /veh FAM211A (11726209_a_at) / RFU RGS16 (11746705_a_at) / Fold change /veh RGS16 (11746705_a_at) / RFU VCAN (11755009_s_at) / Fold change /veh VCAN (11755009_s_at) / RFU RHOB (11743442_s_at) / Fold change /veh RHOB (11743442_s_at) / RFU RGS16 (11720943_a_at) / Fold change /veh RGS16 (11720943_a_at) / RFU RGS16 (11720944_at) / Fold change /veh RGS16 (11720944_at) / RFU, VPS4B / Fold change vs veh, VPS4B / RFU, CREB1 / Fold change vs veh, CREB1 / RFU, DNAJC13 / Fold change vs veh, DNAJC13 / RFU, GNAQ / Fold change vs veh, GNAQ / RFU, CDK5R1 / Fold change vs veh, CDK5R1 / RFU, ZRANB3 / Fold change vs veh, ZRANB3 / RFU, CUL4A / Fold change vs veh, CUL4A / RFU, CCNY / Fold change vs veh, CCNY / RFU, UFL1 / Fold change vs veh, UFL1 / RFU, COG3 / Fold change vs veh, COG3 / RFU, DIAPH2 / Fold change vs veh, DIAPH2 / RFU, SKA2 / Fold change vs veh, SKA2 / RFU, AFF3 / Fold change vs veh, AFF3 / RFU, LMF1 / Fold change vs veh, LMF1 / RFU, IPO11 / Fold change vs veh, IPO11 / RFU, DFFB / Fold change vs veh, DFFB / RFU, FOXP1 / Fold change vs veh, FOXP1 / RFU, CARD8 / Fold change vs veh, CARD8 / RFU, STRN3 / Fold change vs veh, STRN3 / RFU, ADK / Fold change vs veh, ADK / RFU, RASSF2 / Fold change vs veh, RASSF2 / RFU, WIPF1 / Fold change vs veh, WIPF1 / RFU, LARP1B / Fold change vs veh, LARP1B / RFU, RASA1 / Fold change vs veh, RASA1 / RFU, RB1 / Fold change vs veh, RB1 / RFU, PPFIA1 / Fold change vs veh, PPFIA1 / RFU, MAT2A / Fold change vs veh, MAT2A / RFU, CCT5 / Fold change vs veh, CCT5 / RFU, WDR92 / Fold change vs veh, WDR92 / RFU, CUX1 / Fold change vs veh, CUX1 / RFU, TTC7A / Fold change vs veh, TTC7A / RFU, TMEM135 / Fold change vs veh, TMEM135 / RFU, DEPTOR / Fold change vs veh, DEPTOR / RFU, CPM / Fold change vs veh, CPM / RFU, DNAJB6 / Fold change vs veh, DNAJB6 / RFU, CACNA2D3 / Fold change vs veh, CACNA2D3 / RFU, DTX4 / Fold change vs veh, DTX4 / RFU, TFCP2 / Fold change vs veh, TFCP2 / RFU, GMCL1 /// GMCL1P1 / Fold change vs veh, GMCL1 /// GMCL1P1 / RFU, AEBP2 / Fold change vs veh, AEBP2 / RFU, SNHG1 /// SNORD22 /// SNORD25 /// SNORD26 /// SNORD27 /// SNORD28 /// SNORD29 /// SNORD31 / Fold change vs veh, SNHG1 /// SNORD22 /// SNORD25 /// SNORD26 /// SNORD27 /// SNORD28 /// SNORD29 /// SNORD31 / Fold change (Aza/veh), C12orf56 (ProbeSet 11735607_a_at) / Fold change (ACY-1035/veh), C12orf56 (ProbeSet 11735607_a_at) / Fold change (Aza/veh), FGFR1OP (ProbeSet 11751329_s_at) / Fold change (ACY-1035/veh), FGFR1OP (ProbeSet 11751329_s_at) / Fold change (Aza/veh), VPS36 (ProbeSet 11739960_a_at) / Fold change (ACY-1035/veh), VPS36 (ProbeSet 11739960_a_at) / RFU SYPL1 (11715823_x_at) / Fold change /veh SYPL1 (11715823_x_at) / RFU IGFBP7 (11715501_s_at) / Fold change /veh IGFBP7 (11715501_s_at) / RFU REEP3 (11722064_at) / Fold change /veh REEP3 (11722064_at) / RFU IGLL1 (11728026_x_at) / Fold change /veh IGLL1 (11728026_x_at): dose or concentration left out as unconfirmed
Conditions: ProbeSet 11722302_a_at; LIST B

How did the “Fold change vs veh, LRRFIP1” value turn out when `Nc1ccc(-c2cccs2)cc1NC(=O)c1ccc2c(c1)cc(C1CC1)n2CCN1CCOCC1` [ACY-1035] was run?
Its value is 0.98.
